Eleven substances from US20120022143A1, “RNA Interference Mediated Inhibition of the Thymic Stromal Lymphopoietin (TSLP) Gene Expression Using Short Interfering Nucliec Acid (siNA)” (Merck Sharp & Dohme Corp, priority 2009, published 2012) can be followed below.

In one series the test system is TSLP mRNA. Kind of series: Initial screening: TSLP mRNA knock-down by RT-PCR (Taqman) after RNAiMax transfection of NHLF cells. Type of series: cell-based. To be noted: 10 nM siNA, human NHLF cells, 24 hrs post-transfection, relative to non-targeting control, normalized to GAPDH; mean ± s.d. from 2 experiments. As to the method: (§1) All cells were obtained from ATCC (Manassas, Va.) unless otherwise indicated. Cells were grown and transfected under standard conditions, which are detailed below for each cell line.
NHLF (human; Lonza cat# CC-2512): Cells were cultured at 37° C. in the presence of 5% CO2 and grown Fibroblast Basal Medium (Lonza cat# CC-3β2) supplemented growth factors (provided with the kit) and 100 μg/mL of streptomycin and 100 U/mL penicillin.
(§2) All transfections were performed using RNAiMax (Invitrogen Cat# 13778-150) as per the manufacturer's instructions.
(§3) Both human and murine cell lines were transfected in the similar fashion. Cells were plated in all wells of a tissue-culture treated, 96-well plate at a final count of 5,000 cells/well in […], of appropriate culture media. Cells were cultured for 24 hours after plating at 37° C. in the presence of 5% CO2.
(§4) After 24 hours, complexes containing siNA and RNAiMax were created as follows: A solution of RNAiMax diluted 33-fold in OPTI-MEM was prepared. In parallel, solutions of the siNAs for testing were prepared to a final concentration of 120 nM in OPTI-MEM. After incubation of RNAiMax/OPTI-MEM solution at room temperature for 5 min, an equal volume of the siNA solution and the RNAiMax solution were added together for each of the siNAs.
(§5) This solution was incubated at room temperature for 20 minutes. After incubation, 20 uL of the solution was added to each of the relevant wells.
(§6) The final concentration of siNA in each well was 10 nM and the final volume of RNAiMax in each well was 0.3 ul.
(§7) The time of incubation with the RNAiMax-siNA complexes was 24 hours, unless otherwise indicated. There was no change in media between the transfection and harvesting of the cells unless otherwise indicated.
(§8) RNA was extracted from a 96-well plate using the TaqMan® Gene Expression Cells-to-CT™ Kit (Cat# 4399002) with a modified protocol. Briefly, a 60 uL (1 plate) or 110 uL (2 plates) of the Lysis Solution with DNase I was dispensed into each well of the Lysis Buffer Plate (twin.tec full skirt plate). The lysis buffer and stop plates were stored at 4° C. until the cells were washed.
(§9) The plate was spun at 1100 rpm for 5 minutes. The culture medium was aspirated and discarded from the wells of the culture plate. The lysis was performed automatically using a BioMek FX instrument and method. After the Biomek method was completed, the lysis plate was incubated for 2 min. at room temperature. The lysis plate can be stored for 2 hours at 4° C., or at −20° C. or −80° C. for two months.
(§10) Each well of the reverse transcription plate required 10 uL of 2× reverse transcriptase Buffer, luL of 20× reverse transcription enzyme and 2 uL of nuclease-free water. The reverse transcription master mix was prepared by mixing 2× reverse transcription buffer, 20× reverse transcription enzyme mix, and nuclease-free water. 13 uL of the reverse transcription master mix was dispensed into each well of the reverse transcription plate (semi-skirted). A separate reverse transcription plate was prepared for each cell plate. The plate was loaded onto a Biomek NX or Biomek FX Dual-96 and the Biomek method was run. The program is programmed to automatically added 7 uL of lysate from the cell lysis procedure described above into each well of the reverse transcription plate. The plate is sealed and spun on a centrifuge (1000 rpm for 30 seconds) to settle the contents to the bottom of the reverse transcription plate. The plate is placed in a thermocycler at 37° C. for 60 min, 95° C. for 5 min, and 4° C. until the plate is removed from the thermocycler. Upon removal, if not used immediately, the plate was frozen at −20° C.
A series of probes and primers were used to detect the various mRNA transcripts of the genes of TSLP, IL-8 and GAPDH in human cell lines. All the Taqman probes and primers for the experiments here-in described were supplied as pre-validated sets by Applied Biosystems, Inc. (see Table 2). […]
For orientation: In qPCR the cycle at which signal appears reflects the starting amount.

The subject of a further series is mTSLP mRNA. Kind of series: Initial screening: mouse TSLP mRNA knock-down by RT-PCR (Taqman) after RNAiMax transfection of NIH 3T3 cells. Type of series: cell-based. As to conditions: 10 nM siNA, 24 hrs post-transfection, mean ± s.d., summary from 2 screens. How it is done:
as §1
NIH 3T3 (murine; ATCC cat#CRL-1658): Cells were cultured at 37° C. in the presence of 5% CO2 and grown in Dulbecco's modified Eagle's medium (DMEM) with 4 mM L-glutamine adjusted to contain 1.5 g/L sodium bicarbonate and 4.5 g/L glucose and supplemented with fetal bovine serum at a final concentration of 10% and 100 μg/mL of streptomycin and 100 U/mL penicillin.
as §2, §3, §4, §5, §6, §7, §8, §9, §10
A series of probes and primers were used to detect the various mRNA transcripts of the genes of TSLP, IL-8 and GAPDH in human cell lines. […]

[invAb] = inverted abasic unit; d = 2'-deoxy (DNA); m = 2'-O-methyl; r = 2'-OH (RNA); f = 2'-fluoro

For the substance “25430-DC: siNA duplex: sense B cccuGAAAAAGGAAAAAuA TTB (SEQ ID NO: 43), antisense UAUuuuuccuuuuucAGGGUU (SEQ ID NO: 44) (sense CCCUGAAAAAGGAAAAAUATT; antisense UAUUUUUCCUUUUUCAGGGUU; inverted abasic caps, TT overhang, chemistry not fully specified)”, the “% KD TSLP” value in the series on TSLP mRNA came out at 89 ± 4.5%. Further, in the series with mTSLP mRNA, the “% KD mTSLP NIH3T3” value is recorded as 30.4 ± 9.9%.
The like results for “25431-DC: siNA duplex: sense B GcuucAGGAuGcAuuGcAA TTB (SEQ ID NO: 45), antisense UUGcAAuGcAuccuGAAGcUU (SEQ ID NO: 46) (sense GCUUCAGGAUGCAUUGCAATT; antisense UUGCAAUGCAUCCUGAAGCUU; sense: DNA at AGT, 2'-fluoro at CU, [invAb] at 5' end, 3' end, backbone not given here; antisense: sugars from the 5' end rrrfmmfmfmffffmmmmfmm, backbone not given here)” were, in that order, −11 ± 39.5% and −10.8 ± 14.2%.
Take “25432-DC: siNA duplex: sense B cuGAGGAAAAucAGGAcAu TTB (SEQ ID NO: 47), antisense AUGuccuGAuuuuccucAGUU (SEQ ID NO: 48) (sense CUGAGGAAAAUCAGGACAUTT; antisense AUGUCCUGAUUUUCCUCAGUU; sense: DNA at AGT, 2'-fluoro at CU, [invAb] at 5' end, 3' end, backbone not given here; antisense: sugars from the 5' end r3 f4 m2 f8 m4, backbone not given here)”: the “% KD TSLP” value in the series with TSLP mRNA is on record as 47 ± 26.2%. For the same substance, the “% KD mTSLP NIH3T3” value in the series with mTSLP mRNA is reported as 37.1 ± 3.8%.
Consider “25433-DC: siNA duplex: sense B cGcucGccAAAGAAAuGuu TTB (SEQ ID NO: 49), antisense AACAuuucuuuGGcGAGcGUU (SEQ ID NO: 50) (sense CGCUCGCCAAAGAAAUGUUTT; antisense AACAUUUCUUUGGCGAGCGUU; sense: DNA at AGT, 2'-fluoro at CU, [invAb] at 5' end, 3' end, backbone not given here; antisense: sugars from the 5' end rrrmfffffffmmfmmmfmmm, backbone not given here)”, for which the “% KD TSLP” value in the series with TSLP mRNA is given as 36 ± 25^ %. Further, the “% KD mTSLP NIH3T3” value in the series on mTSLP mRNA was 7.5 ± 3.3%.
The matching figures for “25435-DC: siNA duplex: sense B cccAAGcucuuAAAuGcuA TTB (SEQ ID NO: 53), antisense UAGcAuuuAAGAGcuuGGGUU (SEQ ID NO: 54) (sense CCCAAGCUCUUAAAUGCUATT; antisense UAGCAUUUAAGAGCUUGGGUU; sense: DNA at AGT, 2'-fluoro at CU, [invAb] at 5' end, 3' end, backbone not given here; antisense: sugars from the 5' end rrrfmfffmmmmmfffmmmmm, backbone not given here)”: −8 ± 25.4% and −60.6 ± 5.4%.
Take “25437-DC: siNA duplex: sense B cAGGGAGAcuccAAcuuAA TTB (SEQ ID NO: 57), antisense UUAAGuuGGAGucucccuGUU (SEQ ID NO: 58) (sense CAGGGAGACUCCAACUUAATT; antisense UUAAGUUGGAGUCUCCCUGUU; sense: sugars from the 5' end frddddddffffddfffdddd, [invAb] at 5' end, 3' end, backbone not given here; antisense: sugars from the 5' end rrrmmffmmmmfffffffmmm, backbone not given here)”: the “% KD TSLP” value in the series with TSLP mRNA is listed as −51 ± 36.2%. Further, the “% KD mTSLP NIH3T3” value in the series with mTSLP mRNA came out at 33.8 ± 4.2%.
The matching figures for “25439-DC: siNA duplex: sense B cAcGuGGGAAuGcAcuGAu TTB (SEQ ID NO: 61), antisense AUCAGuGcAuucccAcGuGUU (SEQ ID NO: 62) (sense CACGUGGGAAUGCACUGAUTT; antisense AUCAGUGCAUUCCCACGUGUU; sense: DNA at AGT, 2'-fluoro at CU, [invAb] at 5' end, 3' end, backbone not given here; antisense: sugars from the 5' end rrrmmfrfmfffffmfmfrmm, backbone not given here)”: 12 ± 36.7% and 16.8 ± 14.7%.
Turning to “25440-DC: siNA duplex: sense B cucuGGuuuuuuAAAuGuA TTB (SEQ ID NO: 63), antisense UACAuuuAAAAAAccAGAGUU (SEQ ID NO: 64) (sense CUCUGGUUUUUUAAAUGUATT; antisense UACAUUUAAAAAACCAGAGUU; sense: DNA at AGT, 2'-fluoro at CU, [invAb] at 5' end, 3' end, backbone not given here; antisense: sugars from the 5' end rrrmfffmmmmmmffmmmmmm, backbone not given here)”, in the series on TSLP mRNA, the “% KD TSLP” value is reported as 16 ± 20.1%. Also, in the series on mTSLP mRNA, the “% KD mTSLP NIH3T3” value came out at 1 ± 33.1%.
As to “25441-DC: siNA duplex: sense B GGucAGuuAuGucAAuGuu TTB (SEQ ID NO: 65), antisense AACAuuGAcAuAAcuGAccUU (SEQ ID NO: 66) (sense GGUCAGUUAUGUCAAUGUUTT; antisense AACAUUGACAUAACUGACCUU; sense: DNA at AGT, 2'-fluoro at CU, [invAb] at 5' end, 3' end, backbone not given here; antisense: sugars from the 5' end rrrmffmmfmfmmffmmffmm, backbone not given here)”, the “% KD TSLP” value with TSLP mRNA stood at 40 ± 16.2%. Also, the “% KD mTSLP NIH3T3” value with mTSLP mRNA is listed as −13.4 ± 10^ %.
Take “25442-DC: siNA duplex: sense B GGcAAGAGAuuGcAucAuA TTB (SEQ ID NO: 67), antisense UAUGAuGcAAucucuuGccUU (SEQ ID NO: 68) (sense GGCAAGAGAUUGCAUCAUATT; antisense UAUGAUGCAAUCUCUUGCCUU; sense: DNA at AGT, 2'-fluoro at CU, [invAb] at 5' end, 3' end, backbone not given here; antisense: sugars from the 5' end rrrmmfmfmmffffffmffmm, backbone not given here)”: in the series with TSLP mRNA, the “% KD TSLP” value is 12 ± 27^ %. For the same substance, the “% KD mTSLP NIH3T3” value in the series on mTSLP mRNA was −70.9 ± 6.4%.
Take “25443-DC: siNA duplex: sense B GAGGAAGcuuAcAuuAcAu TTB (SEQ ID NO: 69), antisense AUGuAAuGuAAGcuuccucUU (SEQ ID NO: 70) (sense GAGGAAGCUUACAUUACAUTT; antisense AUGUAAUGUAAGCUUCCUCUU; sense: DNA at AGT, 2'-fluoro at CU, [invAb] at 5' end, 3' end, backbone not given here; antisense: sugars from the 5' end rrrfmmfmfmmmfffffffmm, backbone not given here)”: the “% KD TSLP” value in the series with TSLP mRNA is on record as 43 ± 12.1%. For the same substance, the “% KD mTSLP NIH3T3” value in the series with mTSLP mRNA is on record as 16.7 ± 11.7%.
